According to a melting point compilation (Tetko et al.; mined from patent text by program, amines drawn as free bases though some values may be those of a salt):

| Compound | melting point |
| --- | --- |
| CC(C)(C)OC(=O)Nc1cc(NCCO)c(I)cc1[N+](=O)[O-] | 130 to 148 °C |
| C=C(C)CC(OS(C)(=O)=O)C(Cl)(Cl)Cl (stereo not drawn) | 60 to 61 °C |
| O=C(NC1CN2CCC1CC2)c1ccc2[nH]ccc2c1 (stereo not drawn) | 293 to 295 °C |
| CCCCn1ccc(-c2ccc(Oc3ccnc(C)c3)c(F)c2)c(C#N)c1=O | 125 °C |
| COc1cc(Nc2c(C#N)cnc3cc(C#Cc4cnn(CCN5CCOCC5)c4)sc23)c(Cl)cc1Cl | > 200 °C |
| CCOC(C)O[C@H]1C(=O)N(C(=O)OC(C)(C)C)[C@H]1C=Cc1ccccc1 (stereo partly drawn) | 69 to 73 °C |
| O=C1COc2cc3[nH]c(C(=O)O)cc3cc2N1 | 231 to 237 °C |
| ClCc1nc(Cl)c2sccc2n1 | 101 to 102 °C |
| CC(C)(C)c1cc(C(=O)c2ccoc2)cc2c1OCC2(C)C | 120 to 121 °C |
| COc1ccc(-c2cccs2)c2c1c(CCN(C)C)cn2C | 131 to 133 °C |
| COC(=O)CC(O)CP(=O)(C#Cc1c(C(C)C)c2n(c1-c1ccc(F)cc1)CCCC2)OC (stereo not drawn) | 100 to 101 °C |
| Cc1cc(-c2cnn3c(C(F)(F)F)cc(-c4ccc(C(F)(F)F)cc4)nc23)cc(C)n1 | 257 °C |
| CCOC(=O)c1cn(CC)c2cc(-c3csc(CN(C)C(C)=O)n3)c(F)cc2c1=O | 173 to 175 °C |
| CCOC(=O)c1cnc2c([N+](=O)[O-])c(Cl)c(F)cc2c1O | 226 to 228 °C |
| COC(=O)c1ccc(CCSC(C)=O)s1 | 67 to 68 °C |
| CC(=O)N1CCc2cc(C(=O)CCCCCBr)ccc21 | 110 to 111 °C |
| COc1ccc(-n2nc(Cl)cc2-c2ccc(OCCNC(N)=O)cc2)cn1 | 156 to 158 °C |
| Cc1ncoc1C(C)(O)c1ccccc1 (stereo not drawn) | 102 to 104 °C |

| Compound | melting point |
| --- | --- |
| CC(c1cc(Cl)ccc1N1CCCC1)C(C(N)=O)c1ccc(C(=O)O)cc1 (stereo not drawn) | 202 to 204 °C |
| COc1ccc(C(=O)/C=C/c2ccc3c(c2)OCO3)c(OC)c1 | 137 °C |
| Cc1c(=O)o[n-][n+]1CCSC1CCCCC1 | 82 to 83 °C |
| Cc1c(C)c2c(c(C)c1NCc1cccs1)C(c1ccc(C(C)C)cc1)C(C)(C)O2 (stereo not drawn) | 101 to 103 °C |
| N#Cc1cc(CO)nc(C(=O)Nc2cccc(Cl)c2)c1 | 167 °C |
| CC(C)C(NC(=O)c1ccc(C(=O)NCC(=O)O)cc1)C(=O)N1CCCC1C(=O)NC(C(=O)C(F)(F)F)C(C)C (mixture of isomers) | 99 to 103 °C |
| CCCCCC#CCC(CC#CCCCCC)(C(=O)O)S(=O)(=O)c1ccc(OC)cc1 | 61 °C |
| COC(=O)Nc1cccc2c1C(=O)C1(O)c3ccc(C(C)C)cc3OC21O (stereo not drawn) | 96 to 99 °C |
| C#CCN(C)c1nc(C(=O)N(C)C)cs1 | 99 to 100 °C |
| CCOC(=O)C1=C(C)NC(C=O)=C(C(=O)OCC)C1c1ccco1 (stereo not drawn) | 78 to 79.5 °C |
| CCOC(=O)c1cc2cc(/C=C/C(=O)c3cc(OC)c(OC)c(OC)c3)cc(C(C)CC)c2oc1=O (stereo not drawn) | 138 to 139 °C |
| Cc1c(C(=O)O)oc2ccc(Cc3cccnc3)cc12 | 223 to 225 °C |
| NC(Cc1cc(Cl)ccc1CCP(=O)(O)O)C(=O)O (stereo not drawn) | > 160 °C |
| Oc1cc(Br)c2oc(-c3ccc(O)c(C(F)(F)F)c3)nc2c1 | 183 to 185 °C |
| COC(=O)C(C)c1noc2cc(F)c(N3C(=O)C(C)=C(C)C3=O)cc12 (stereo not drawn) | 106 to 107 °C |
| CC(C)OC(=O)CC(NCCCN(C)C)C(=O)O (stereo not drawn) | 164 to 166 °C |
| COc1ccc(C(=O)N[C@@H]2CCc3cccc(N4CCN(C)CC4)c3C2)cc1 | 186 to 187 °C |

Further lines, results first:

| melting point | Compound |
| --- | --- |
| > 250 °C | CC1(S(=O)(=O)c2ccccc2)CCc2nc(-c3ccccc3)[nH]c(=O)c2C1 (stereo not drawn) |
| 73 to 75 °C | CCCCCCCCNC(=O)OC1CCN(C(=O)Oc2ccc(Oc3ccccc3)cc2)CC1 |
| 138 °C | COC(=O)C(c1ccccc1)N1CCC(c2ccc(NC(=O)c3ccccc3-c3ccc(C(F)(F)F)cc3)cc2)CC1 (stereo not drawn) |
| 77 to 79 °C | O=C1CC2(c3ccccc3)CCCC2C(=O)N1Cc1ccccc1 (stereo not drawn) |
| 166 to 168 °C | CONC(=O)c1[nH]c(C)c(-c2nc3ccc(Oc4ccccc4)cc3[nH]2)c1C |
| 166 to 167 °C | O=c1c(CCCc2ccco2)cc2cccnc2n1-c1cccc([N+](=O)[O-])c1 |
| 110 to 112 °C | CN1C(=O)CC[C@]2(C)c3ccc(-c4cc(C(F)(F)F)cc(C(F)(F)F)c4)cc3CC[C@@H]12 |
| 120 °C | C=Cc1ccccc1C(=O)n1nnc2ccccc2c1=O |
| 157 to 158 °C | CCCC(=O)Nc1c(C(=O)c2cccc(Cl)c2)[nH]c2cc(Cl)ccc12 |
| 184 to 186 °C | COc1ccc(S(=O)(=O)N2CCc3cccc(-c4ccc(N)cc4)c32)cc1 |
| 109 to 110 °C | COc1ccc2c(c1)C1=C(SCC3(CCN(CC(O)COc4ccc(Cl)cc4)CC3)O1)C(=O)C2=O (stereo not drawn) |
| 150 °C | CSC(=NS(=O)(=O)c1ccccc1)Nc1ccc(C#N)cc1 |
| 205 to 207 °C | O=C1OCc2c1cc1ccc(Cl)cc1c2-c1ccc(Cl)cc1 |
| 120 to 122 °C | COC(=O)c1nc2c(c(SC)nn2-c2ccccc2)c(N)c1C(=O)OC |
| 157 to 158 °C | CCC(=O)C1=C(O)CC(c2ccc(Oc3ccc(S(C)(=O)=O)cc3)cc2)CC1=O (stereo not drawn) |
| 222 to 223 °C | O=C(O)c1cccc(-c2ccc3c(c2)N(c2ccc(Cl)cc2Cl)CCO3)c1 |
| 250 to 251 °C | N#Cc1cnc2cc3ccccc3cc2c1Nc1ccc(Oc2ccccc2)cc1 |

| melting point | Compound |
| --- | --- |
| 210 to 211 °C | O=C(Nc1n[nH]c(=S)s1)N[C@@H](Cc1ccccc1)C(=O)N1CCN(c2ccccc2)CC1 |
| 112 to 114 °C | O=C(Oc1ccccc1)N1CCN(c2nn(S(=O)(=O)c3ccccc3)c3ccccc23)CC1 |
| 200 °C | CCc1nc2cc(C(F)(F)F)c(Cl)cc2n1-c1ccc(C[C@H](C)OC(=O)NS(=O)(=O)c2ccc(C)cc2)cc1 |
| 208 to 210 °C | O=c1[nH]nc(-c2ccc(Cl)cc2)n1Cc1ccccc1 |
| 119 to 123 °C | OCC1(n2nc3ccccc3n2)OCC1c1ccccc1 (stereo not drawn) |
| 165 to 167 °C | CC(=O)NC1(CCc2ccccc2)CCOC(=O)CC1 (stereo not drawn) |
| 205 to 206 °C | CN1N=C(c2ccc(F)cc2)c2ccc(F)cc2CS1(=O)=O |
| 152 to 154 °C | COC(=O)C1(CCCN2CCN(c3ccccc3)CC2)Sc2ccccc2CCC1O (stereo not drawn) |
| 186 to 187 °C | CCN(C(=O)c1cnc(N2CC(C)(C)NC2=O)nc1N)c1cccc(C(F)(F)F)c1 |
| 111 to 115 °C | C[Si](C)(C)NC(=O)c1ccccc1 |
| 182 °C | NC(=O)Cc1cn(-c2ccccc2)nc1-c1ccc(Cl)cc1 |
| 223 to 224 °C | CCCCCNc1cc(C(=O)O)cc(S(N)(=O)=O)c1Oc1ccccc1 |
| 163 to 164 °C | CCOC(=O)CCN1CCN(CC2CN(c3ccc(C(=N)NC(=O)c4ccccc4)cc3)C(=O)O2)CC1 (stereo not drawn) |
| 134 °C | COc1ccc(S(=O)(=O)N(CCCN(C)C)c2ccc(Cl)cc2Cc2c(F)cccc2F)cc1OC |
| 162 to 163 °C | CCCc1ccc(OCc2ccc(OCc3nc(-c4ccccc4)oc3C)cc2)cc1OCC(=O)O |
| 61 to 65 °C | O=C(O)[C@@H]1O[C@@H](c2ccccc2)N(NS(=O)(=O)c2ccc([N+](=O)[O-])cc2)[C@H]1c1ccccc1 |
